Source: publication PMC8230370, “Antiproliferative Illudalane Sesquiterpenes from the Marine Sediment Ascomycete Aspergillus oryzae” (Marine Drugs, 2021)
“Also recorded” adds a separate entry of the source. Where two headings read alike, the source gives them in different places.

Columns and labels:
A549 (lung) cancer cells = assay: MTT antiproliferative assay, A549 lung carcinoma; type: cell-based, human; details: 48 h incubation, read-out: IC50 for the Different Carcinoma Cell Lines, A549 (Lung)
Description: (§1) The antiproliferative activity of compounds was measured using MTT (3-(4, 5-dimethylthiazol-2-yl)-2,5-diphenyltetrazolium bromide) assay. A549 (lung), HepG2 (liver), and MCF-7 (breast) cancer cells were purchased from the American Type Cell Collection (ATCC, Manassas, VA, USA). The cells were seeded at 5 × 10^4 cells/well (in 100 μL of DMEM) in 96-well microplates. After 24 h incubation at 37 °C, serial dilution (15–250 µM) of each compound was added and incubated for 48 h. Thereafter, 10 μL of the MTT solution (5 mg/mL) was added to each well. After 4 h incubation with the MTT solution, a volume of 100 μL of acidified isopropanol was added to solubilize the formazan product and incubated on a shaker for a further 10 min. Reduced MTT was assayed at 570 nm using a microplate reader (BioTek, Winoosky, VT, USA). Control groups received the same amount of DMSO (0.1%), untreated cells were used as a negative control, whereas cells treated with doxorubicin were used as a positive control. The IC50 (concentration that caused more than 50% inhibition of proliferation) was calculated from a dose-dependent curve. The cell viability percent was calculated = mean absorbance of treated sample/mean absorbance of control ×100.

zebrafish embryos = assay: Zebrafish embryo toxicity screening; type: in vivo; details: for observable toxicity / development of treated zebrafish embryos: up to 3 days post treatment
Excerpt: Wild-type zebrafish strain AB/Tuebingen TAB-14(AB/TuebingenTAB-14) (Catalog ID: ZL1438) were obtained from zebrafish international resource center and grown in an animal facility at the Department of Zoology, King Saud University, Riyadh, Kingdom of Saudi Arabia. The fish were maintained and bred following guidelines of the Institutional Animal Care and Use Committee (ICUAC) and zebrafish book. The fertilized embryos were obtained by natural pairwise breeding of adult fish. The fertilized embryos were sorted, dead embryos were removed, and synchronous stage embryos were used for screening.
A stock solution of 25 mM was made by dissolving the compounds in molecular biology grade DMSO (Sigma Aldrich, St. Louis, MI, USA). Zebrafish embryos were exposed to serial dilution (1, 5, 15, 45, 150, and 300 µM) of each compound. The embryos were remained exposed to the compounds for 3 days, and the embryos medium containing the compounds were changed every day. The response of the embryos toward mortality, and embryonic toxicity (teratogenicity) was monitored once after 12 h and then after every 24 h until the end of the experiment. The experiment was repeated at least three times (triplicate biological repeats) by using a new batch of embryos every time. LC50 for zebrafish embryonic toxicity was calculated by using an updated Probit analysis by Finney method.

[1] = test system: MCF-7 (breast) cancer cells; assay: MTT antiproliferative assay, MCF-7 breast carcinoma; type: cell-based, human; details: 48 h incubation, MCF-7 cells, read-out: IC50 for the Different Carcinoma Cell Lines, MCF-7 (Breast)
Description: as §1

[2] = test system: HepG2 (liver) cancer cells; assay: MTT antiproliferative assay, HepG2 liver carcinoma; type: cell-based, human; details: 48 h incubation, read-out: IC50 for the Different Carcinoma Cell Lines, HepG2 (Liver)
Description: as §1

Q: Which results are given for `O=c1cc(CO)c(O)co1` [Compound 3, 4-(hydroxymethyl)-5-hydroxy-2H-pyran-2-one]?
A: IC50 (A549 (lung) cancer cells; Homo sapiens, A549, 48 h): 208 ± 6.8 µM; observable toxicity / development of treated zebrafish embryos (zebrafish embryos): did not exhibit any observable toxicity; also recorded: developed normally; IC50 ([1]; Homo sapiens, MCF7, 48 h): 225 ± 5.1 µM; IC50 ([2]; Homo sapiens, HepG2, 48 h): 220 ± 3.6 µM

Q: For `CC(=O)OCc1cc(=O)occ1O` [Compound 4, (5-hydroxy-2-oxo-2H-pyran-4-yl)methyl acetate], which IC50 (A549 (lung) cancer cells; Homo sapiens, A549, 48 h) is on record?
A: 89.4 ± 2.3 µM

Q: What about the “death of treated embryos” value (zebrafish embryos; after 24 h post treatment, initial development normal) of the same molecule?
A: 100%

Q: What about the “observable toxicity / development of treated zebrafish embryos” value (zebrafish embryos) of the same molecule?
A: found dead on day 2

Q: And the IC50 ([1]; Homo sapiens, MCF7, 48 h)?
A: 171 ± 4.5 µM

Q: And the IC50 ([2]; Homo sapiens, HepG2, 48 h)?
A: 127 ± 6.4 µM

Q: Which results are given for `O=Cc1ccc(O)cc1` [Compound 5, 4-hydroxybenzaldehyde]?
A: IC50 (A549 (lung) cancer cells; Homo sapiens, A549, 48 h): 97.5 ± 2.6 µM; observable toxicity / development of treated zebrafish embryos (zebrafish embryos): did not exhibit any observable toxicity; also recorded: developed normally; IC50 ([1]; Homo sapiens, MCF7, 48 h): 158 ± 5.5 µM; IC50 ([2]; Homo sapiens, HepG2, 48 h): 243 ± 6.4 µM

Q: Which IC50 (A549 (lung) cancer cells; Homo sapiens, A549, 48 h) does the source give for `COc1cccc2c1C(=O)c1c(O)c3c(c(O)c1C2=O)C[C@@](O)(C(=O)CO)C[C@@H]3O[C@H]1C[C@H](N)[C@H](O)[C@H](C)O1` [Doxorubicin, doxorubicin, reference compound] here?
A: 2.1 ± 0.08 µM

Q: What about the IC50 ([1]; Homo sapiens, MCF7, 48 h) of the same molecule?
A: 1.9 ± 0.05 µM

Q: What about the IC50 ([2]; Homo sapiens, HepG2, 48 h) of the same molecule?
A: 2.2 ± 0.15 µM

Q: Which results are given for `Cc1c2c(cc3c1[C@@H](O)COC3=O)CC(C)(C)C2` [Compound 1, asperorlactone]?
A: IC50 (A549 (lung) cancer cells): 72.7 ± 1.1 µM; IC50 (A549 (lung) cancer cells; Homo sapiens, A549, 48 h): < 100 µM; toxicity in zebrafish embryos (zebrafish embryos; more than 200 µM compound, after 2 days post treatment): cardiac toxicity (cardiac edema and cardiac hypertrophy; IC50 [1]: 106 ± 4.2 µM; IC50 ([1]; Homo sapiens, MCF7, 48 h): < 100 µM; IC50 [2]: 86.6 ± 3.2 µM; IC50 ([2]; Homo sapiens, HepG2, 48 h): < 100 µM

Q: Which results are given for `Cc1c2c(cc3c1CCOC3=O)C[C@](C)(CO)C2` [Compound 2, echinolactone D]?
A: IC50 (A549 (lung) cancer cells; Homo sapiens, A549, 48 h): 55.7 ± 2.5 µM; observable toxicity / development of treated zebrafish embryos (zebrafish embryos): did not exhibit any observable toxicity; also recorded: developed normally; IC50 ([1]; Homo sapiens, MCF7, 48 h): 128 ± 2.8 µM; IC50 ([2]; Homo sapiens, HepG2, 48 h): 148 ± 5.6 µM
